Converted amounts (≈) assume the structure as drawn. Read-outs that look alike come from different tables or passages of the source. Positions of bridges follow the written chain, without caps; N, C: chain ends. Non-standard residues stand in square brackets, D forms with d. Residues, ends and D or L forms follow the SMILES beside them. No end group written: not given here. *: point of attachment. X1 = CC[C@H](C)CCCCC(=O)*; Dab = NCC[C@H](N)C(=O)O
What was measured:
[1] = test system: M. luteus B-1314; format: cell-based, Micrococcus luteus; details: Mueller-Hinton broth, 10^6 CFU/ml, peptide diluted in 0.1% BSA, 37°C, 24 h, median of at least 3 experiments in triplicate
Method: (§1) Antimicrobial assay was performed as described previously ([Panteleev et al., 2017b]). Briefly, mid-log phase bacterial test cultures were diluted with the 2× Mueller-Hinton broth (MH, Sigma) supplemented with 1.8% NaCl or without it so that to reach a final cell concentration of 10^6 CFU/ml. 50 μl aliquots of the obtained bacterial suspension were added to 50 μl of the peptide solutions serially diluted with 0.1% water solution of bovine serum albumin (BSA) in 96-well flat-bottom polystyrene microplates (Eppendorf #0030730011). After incubation at 37°C and 900 rpm for 24 h the minimum inhibitory concentrations (MIC) were determined as the lowest peptide concentrations that prevented growth of a test microorganism observed as visible turbidity. The results were expressed as the median values determined on the basis of at least three independent experiments performed in triplicate.

[2] = test system: B. subtilis B-886; format: cell-based, Bacillus subtilis; details: Mueller-Hinton broth, 10^6 CFU/ml, 0.1% BSA, 37°C, 24 h, median of at least 3 experiments
Method: as §1

[3] = test system: E. faecalis ATCC 29212; format: cell-based, Enterococcus faecalis; details: Mueller-Hinton broth, 10^6 CFU/ml, 0.1% BSA, 37°C, 24 h, median of at least 3 experiments
Method: (§3) Briefly, mid-log phase bacterial test cultures were diluted with the 2× Mueller-Hinton broth (MH, Sigma) supplemented with 1.8% NaCl or without it so that to reach a final cell concentration of 10^6 CFU/ml. 50 μl aliquots of the obtained bacterial suspension were added to 50 μl of the peptide solutions serially diluted with 0.1% water solution of bovine serum albumin (BSA) in 96-well flat-bottom polystyrene microplates (Eppendorf #0030730011). […] The results were expressed as the median values determined on the basis of at least three independent experiments performed in triplicate.

[4] = test system: S. aureus ATCC 29213; format: cell-based, Staphylococcus aureus; details: Mueller-Hinton broth, 10^6 CFU/ml, 0.1% BSA, 37°C, 24 h, median of at least 3 experiments
Method: as §3

[5] = test system: S. aureus 209P; format: cell-based, Staphylococcus aureus; details: Mueller-Hinton broth, 10^6 CFU/ml, 0.1% BSA, 37°C, 24 h, median of at least 3 experiments
Method: as §1

[6] = test system: P. aeruginosa PAO1; format: cell-based, Pseudomonas aeruginosa; details: Mueller-Hinton broth, 10^6 CFU/ml, 0.1% BSA, 37°C, 24 h, median of at least 3 experiments
Method: as §1

[7] = test system: A. baumannii (XDR CI 2675); assay: microbe, parasite or virus in culture; format: cell-based, Acinetobacter baumannii; details: read-out: Minimum inhibitory concentration
Method: as §1

[8] = test system: K. pneumoniae (CI 287); format: cell-based, Klebsiella pneumoniae; details: Mueller-Hinton broth, 10^6 CFU/ml, 0.1% BSA, 37°C, 24 h, median of at least 3 experiments
Method: as §1

[9] = test system: E. cloacae (XDR CI 4172); assay: microbe, parasite or virus in culture; format: cell-based, Enterobacter cloacae; details: read-out: Minimum inhibitory concentration
Method: as §1

[10] = test system: E. coli C600; format: cell-based, Escherichia coli; details: Mueller-Hinton broth, 10^6 CFU/ml, 0.1% BSA, 37°C, 24 h, median of at least 3 experiments
Method: as §1

[11] = test system: E. coli ML-35p; format: cell-based, Escherichia coli; details: Mueller-Hinton broth, 10^6 CFU/ml, 0.1% BSA, 37°C, 24 h, median of at least 3 experiments
Method: as §1

[12] = test system: E. coli XDR CI 1057 (26 days with mini-ChBac7.5Nα)
Method: as §1, with “After incubation at 37°C and 900 rpm for 24 h the minimum inhibitory concentrations (MIC) were determined as the lowest peptide concentrations that prevented growth of a test microorganism observed as visible turbidity.” left out
(§2) Resistance induction experiments were performed using the previously described method ([Chernysh et al., 2015]) with some modifications. Briefly, on day 1, the overnight culture of wild-type bacteria was diluted with the 2× MH broth containing 1.8% NaCl so that to reach a final cell concentration of 10^6 CFU/ml. 50 μl aliquots of the obtained bacterial suspension were added to 50 μl of the peptide solutions serially diluted with 0.1% water solution of BSA in 96-well microplates (Eppendorf #0030730011). After incubation at 37°C and 900 rpm for 22 ± 2 h, MICs were determined as described above. For each subsequent daily transfer, 5 μl of the inoculum taken from the first well with a sub-inhibitory drug concentration were diluted with 1 ml of the fresh 2× MH broth supplemented with 1.8% NaCl. […] 26 repeated passages in the presence of antimicrobial agents were made for each bacterial strain during the experiment. […] Control serial passages in the absence of the agent were also performed.

[13] = test system: E. coli XDR CI 1057 (26 days without antimicrobial agent)
Method: as §1, with “After incubation at 37°C and 900 rpm for 24 h the minimum inhibitory concentrations (MIC) were determined as the lowest peptide concentrations that prevented growth of a test microorganism observed as visible turbidity.” left out
as §2

[14] = test system: mini-ChBac7.5Nα-resistant E. coli strain; details: peptide alone, before addition of ChMAP-28
Method: as §1, with “After incubation at 37°C and 900 rpm for 24 h the minimum inhibitory concentrations (MIC) were determined as the lowest peptide concentrations that prevented growth of a test microorganism observed as visible turbidity.” left out
as §2

[15] = test system: mammalian cell lines (HEK293T, HEF); assay: Cytotoxicity (MTT assay); format: cell-based, human; details: HEK293T and HEF, 24 h incubation
Method: Hemolytic activity of the peptides was tested against the fresh suspension of human red blood cells (hRBC) using the hemoglobin release assay as described previously ([Panteleev et al., 2016]). Three experiments were performed with the hRBC from blood samples obtained from independent donors. The obtained data were represented as average means with standard deviations. The cytotoxicity of the peptides against HEK293T (transformed human embryonic kidney cells) and HEF (human embryonic fibroblasts) cell lines was studied using the colorimetric 3-(4,5-dimethylthiazol-2-yl)-2,5-diphenyltetrazolium bromide (MTT) dye reduction assay according to ([Panteleev and Ovchinnikova, 2017]). Three independent experiments were performed for each peptide. Half maximal inhibitory concentration (IC50) values were estimated as described previously ([Kuzmin et al., 2018]).

[16] = test system: E. coli V102G mutant strain (SbmA); parameters: method as in Corbalan et al., 2013; details: ref Corbalan et al., 2013; cited from earlier work
[17] = test system: E. coli (XDR CI 1057); assay: microbe, parasite or virus in culture; format: cell-based, Escherichia coli
Method: as §1

[18] = test system: K. pneumoniae (XDR CI 1056); assay: microbe, parasite or virus in culture; format: cell-based, Klebsiella pneumoniae; details: Table S2, XDR clinical isolate; NaCl content of medium not stated; read-out: Minimum inhibitory concentration
Method: as §1

[19] = test system: P. aeruginosa (XDR CI 1049); assay: microbe, parasite or virus in culture; format: cell-based, Pseudomonas aeruginosa; details: Table S2, XDR clinical isolate; NaCl content of medium not stated; read-out: Minimum inhibitory concentration
Method: as §1

[20] = test system: P. mirabilis (XDR CI 3423); assay: microbe, parasite or virus in culture; format: cell-based, Proteus mirabilis; details: Table S2, XDR clinical isolate; NaCl content of medium not stated; read-out: Minimum inhibitory concentration
Method: as §1

[21] = test system: E. coli XDR CI 1057 (26 days with synergy combination); details: Table 4, strain after 26 days with synergy combination (selection in MH broth with 0.9% NaCl)
Method: as §1, with “After incubation at 37°C and 900 rpm for 24 h the minimum inhibitory concentrations (MIC) were determined as the lowest peptide concentrations that prevented growth of a test microorganism observed as visible turbidity.” left out
as §2

[22] = test system: E. coli XDR CI 1057; details: MH broth, 0.9% NaCl
Method: Resistance induction experiments were performed using the previously described method ([Chernysh et al., 2015]) with some modifications. Briefly, on day 1, the overnight culture of wild-type bacteria was diluted with the 2× MH broth containing 1.8% NaCl so that to reach a final cell concentration of 10^6 CFU/ml. 50 μl aliquots of the obtained bacterial suspension were added to 50 μl of the peptide solutions serially diluted with 0.1% water solution of BSA in 96-well microplates (Eppendorf #0030730011). After incubation at 37°C and 900 rpm for 22 ± 2 h, MICs were determined as described above. For each subsequent daily transfer, 5 μl of the inoculum taken from the first well with a sub-inhibitory drug concentration were diluted with 1 ml of the fresh 2× MH broth supplemented with 1.8% NaCl. […] Control serial passages in the absence of the agent were also performed.

[23] = test system: E. coli ML-35p; assay: Resistance induction experiment; format: cell-based, Escherichia coli; details: after 25 passages under selection; MH broth, 0.9% NaCl
Method: as §2

[24] = 0.9% NaCl, Mueller-Hinton broth, 10^6 CFU/ml, 0.1% BSA, 37°C, 24 h, median of at least 3 experiments
[25] = Without NaCl, Mueller-Hinton broth, 10^6 CFU/ml, 0.1% BSA, 37°C, 24 h, median of at least 3 experiments
[26] = Table S2, XDR clinical isolate, NaCl content of medium not stated

With “RRLRPRRPRLPRPRPR [mini-ChBac7.5Nα(1–16)]” the Minimum inhibitory concentration ([1]; 0.9% NaCl) was 8 µM, the Minimum inhibitory concentration ([1]; Without NaCl) was 1 µM and the Minimum inhibitory concentration ([2]; 0.9% NaCl) was >32 µM. For the same molecule, the Minimum inhibitory concentration ([2]; Without NaCl) was 1 µM, the Minimum inhibitory concentration ([3]; 0.9% NaCl) was >32 µM and the Minimum inhibitory concentration ([3]; Without NaCl) was >32 µM. For the same molecule, the Minimum inhibitory concentration ([4]; 0.9% NaCl) was >32 µM, the Minimum inhibitory concentration ([4]; Without NaCl) was >32 µM and the Minimum inhibitory concentration ([5]; 0.9% NaCl) was >32 µM. The Minimum inhibitory concentration ([5]; Without NaCl) was 8 µM, the Minimum inhibitory concentration ([6]; 0.9% NaCl) was >32 µM and the Minimum inhibitory concentration ([6]; Without NaCl) was 16 µM. The MIC [7, 24] was >32 µM, the MIC [7, 25] was 4 µM and the Minimum inhibitory concentration ([8]; 0.9% NaCl) was >32 µM. For the same molecule, the Minimum inhibitory concentration ([8]; Without NaCl) was 4 µM, the MIC [9, 24] was >32 µM and the MIC [9, 25] was 1 µM. It also gave a Minimum inhibitory concentration ([10]; 0.9% NaCl) of 16 µM, a Minimum inhibitory concentration ([10]; Without NaCl) of 2 µM and a Minimum inhibitory concentration ([11]; 0.9% NaCl) of 8 µM. For the same molecule, the Minimum inhibitory concentration ([11]; Without NaCl) was 0.5 µM, the Minimum inhibitory concentration ([12]; With 0.9% NaCl, resistant strain, 26 days with mini-ChBac7.5Nα) was >256 µM and the Minimum inhibitory concentration ([12]; Without salt, resistant strain, 26 days with mini-ChBac7.5Nα) was 16 µM. The Minimum inhibitory concentration ([13]; With 0.9% NaCl, control strain, 26 days without antimicrobial agent) was 16 µM, the Minimum inhibitory concentration ([13]; Without salt, control strain, 26 days without antimicrobial agent) was 2 µM and the “MIC of the individual peptide” value [14] was > 256 µM. For the same molecule, the “concentrations at which cytotoxic activity was shown” value [15] was > 25 µM.
For “Bac7(1–16): minimal active fragment of the bovine 60-residue Pro-rich peptide Bac7 (RRIRPRPPRLPRPRPR; Bactenecin 7; UniProt P19661 131-146, looked up, fragment)”, the MIC [16] is listed as 156 µM.
Molecule `CC[C@H](C)CCCCC(=O)N[C@@H](CCN)C(=O)N[C@H](C(=O)N[C@@H](CCN)C(=O)N[C@H]1CCNC(=O)[C@H]([C@@H](C)O)NC(=O)[C@H](CCN)NC(=O)[C@H](CCN)NC(=O)[C@H](CC(C)C)NC(=O)[C@@H](Cc2ccccc2)NC(=O)[C@H](CCN)NC1=O)[C@@H](C)O` [Polymyxin B, reference compound] (X1-[Dab]T[Dab][Dab][Dab][dF]L[Dab][Dab]T; lactam 4-C (inferred); N-terminus assumed) has an MIC [7, 26] of 0.125 µM (≈ 0.15 µg/mL), an MIC [9, 26] of 4 µM (≈ 4.81 µg/mL) and a Minimum inhibitory concentration ([17]; Table 4, strain at 0 days of selection experiment (selection in MH broth with 0.9% NaCl)) of 0.125 µM (≈ 0.15 µg/mL). It also gave a Minimum inhibitory concentration [17, 26] of 0.125 µM (≈ 0.15 µg/mL), an MIC [18] of 0.25 µM (≈ 0.301 µg/mL) and an MIC [19] of 2 µM (≈ 2.41 µg/mL). The MIC [20] was >128 µM, the Minimum inhibitory concentration ([12]; Table 4, strain after 26 days with mini-ChBac7.5Nα (selection in MH broth with 0.9% NaCl)) was 0.125 µM (≈ 0.15 µg/mL) and the Minimum inhibitory concentration [21] was 0.06 µM. For the same molecule, the Minimum inhibitory concentration ([13]; Table 4, strain after 26 days without antimicrobial agent (selection in MH broth with 0.9% NaCl)) was 0.125 µM (≈ 0.15 µg/mL), the “increase in MIC value” ([22]; after 25 passages under selection) was 2048 fold and the “MIC value after resistance development” value ([22]; selection by polymyxin B) was > 256 µM. For the same molecule, the “increase in MIC value” [23] was 128 fold.

— publication PMC6284057, “Combined Antibacterial Effects of Goat Cathelicidins With Different Mechanisms of Action” (Frontiers in Microbiology, 2018)
